Source: patent US20150203474A1, “SOLID FORMS COMPRISING INHIBITORS OF HCV NS5A, COMPOSITIONS THEREOF, AND USES THEREWITH” (PRESIDIO PHARMACEUTICALS ,INC., priority 2012, published 2015)
Where two headings read alike, the source gives them in different places.

Experiments:
[1] = Moisture sorption/desorption (DVS) of Compound I Form A; assay type: physicochemical; settings: 25° C.
Experimental: Dynamic vapor sorption/desorption (DVS) data were collected on a VTI SGA-100 Vapor Sorption Analyzer. NaCl and PVP were used as calibration standards. Samples were not dried prior to analysis. Adsorption and desorption data were collected over a range from 5 to 95% RH at 10% RH increments under a nitrogen purge. The equilibrium criterion used for analysis was less than 0.0100% weight change in 5 minutes with a maximum equilibration time of 3 hours. Data were not corrected for the initial moisture content of the samples. Moisture sorption/desorption data were collected for the sample on a VTI […] Vapor Sorption Analyzer. NaCl and PVP were used as calibration standards. Samples were vacuum dried prior to analysis. Sorption and desorption data were collected over a range from 5 to 95% RH at 10% RH increments under a nitrogen purge. The equilibrium criterion used for analysis was less than 0.0100% weight change in 5 minutes with a maximum equilibration time of 3 hours. Data were not corrected for the initial moisture content of the samples. FIG. 15 illustrates the graphed Weight % vs. Relative Humidity.

[2] = PK study of Form I of Compound II in monkeys; assay type: in vivo; settings: PO dose of 75 mg/kg; for concentration at 0.083 h / concentration at 0.25 h / concentration at 0.5 hr / concentration at 1 hr / concentration at 2 hr / concentration at 4 hr / concentration at 6 hr / concentration at 8 hr / concentration at 24 h: male, cynomolgus monkey, plasma, po, 75 mg/kg
Experimental: The pharmacokinetics (PK) properties of Form A of Compound I and Form I of Compound II were determined in a series of comprehensive experiments in preclinical species including Sprague-Dawley rats, beagle dogs, cynomolgus monkeys. In those studies, the Form A crystalline salt of Compound I (and Form I crystalline salt of Compound II) was formulated in saline, 0.5% MC in saline or other commonly used suitable formulation vehicles to give a clear solution or as a suspension or a paste depending on the concentration intended to reach and the choice of vehicles. Dosing was by oral gavage. Blood samples were drawn and placed into individual tube containing K2EDTA. Blood samples were put on ice and centrifuged (2000 g for 5 minutes at 4° C.) to obtain plasma within 15 minutes after collection. Plasma samples were stored at approximately −80° C. freezer until analysis. For most of these analyses, Compound I (and Compound II) and the internal standard (IS) were extracted from rat, monkey or dog plasma by protein precipitation, and the extract was evaporated, reconstituted and analyzed using HPLC with tandem mass spectrometric detection (HPLC-MS/MS), see examples for further details. Calibration was accomplished by weighted linear regression of the ratio of the peak area of analyte to that of the added internal standard (IS). For the validated assay in rat and monkey EDTA plasma, the Lower Limit of Quantitation (LLOQ) for both compound 1 and 2 was 5.00 ng/mL, and the assay was linear from 5.00-1,000 ng/mL. PK parameters were calculated by non-compartmental analysis using WinNonlin (versions 4.1 through 6.1). Non-naïve Cynomolgus monkeys, 3.2-3.5 kg, male Dosing solution was prepared by dissolving 682.96 mg of Form I of Compound II in 82.558 mL of 0.5% MC in saline, vortexing for 5 min and sonicating for 18 min to obtain a homogenous solution. The above solution was given to the animals at 10 mL/kg via intragastric administration To collect blood samples, the animals were restrained manually and approx. 0.6-1 mL blood/time point was collected from cephalic or sephanous veins into pre-cooled EDTA tubes. Blood samples were put on ice and centrifuged at 4° C. to obtain plasma within 30 minutes of sample collection. Plasma samples were stored at −70° C. until analysis. • Instrument LC-MS/MS (API4000) • MS conditions Positive ion, EST • HPLC conditions Mobile Phase A: H2O—0.025% formic acid—1 mM NH4OAc • Mobile Phase B: MeOH—0.025% formic acid—1 mM NH4OAc • Column: Boston Crest ODS-C18 (2.1×50 mm, 5 μm) • Flow rate: 0.40 mL/min • Compound II retention time: 2.30 min; • IS retention time: 2.29 min • Sample preparation An aliquot of 20 μL plasma sample was protein precipitated with […] which contains 5 ng/mL IS (P1100970-1). The mixture was vortexed for 2 min, and then centrifuged at 12000 rpm for 5 min. an aliquot of 5 μL supernatant was injected onto the LC-MS/MS system.

[3] = Moisture sorption profile (DVS) of Compound II Form I and amorphous Compound II; assay type: physicochemical; settings: DVS at 25° C.
Experimental: The moisture sorption profile was generated of the sample as well as of a sample of amorphous Compound II at 25° C. using a DVS Moisture Balance Flow System (Model Advantage) with the following conditions: sample size approximately 10 mg, drying 25° C. for 60 minutes, adsorption range 0% to 95% RH, desorption range 95% to 0% RH, and step interval 5%. The equilibrium criterion was <0.01% weight change in 5 minutes for a maximum of 120 minutes.

[4] = with respect to the initial sample weight
[5] = #0610703, read-out: plasma concentration
[6] = #0612169, read-out: plasma concentration
[7] = Mean, read-out: mean plasma concentration

COC(=O)N[C@H](C(=O)N1CCC[C@H]1c1ncc(-c2ccc3cc(-c4ccc5nc([C@@H]6CCCN6C(=O)[C@@H](NC(=O)OC)C(C)C)[nH]c5c4)ccc3c2)[nH]1)C(C)C [Form A of Compound I]
Weight % chg ([1]; desorption, Samp RH 5.17 %): 0.673% | Weight % chg ([1]; desorption, Samp RH 14.73 %): 2.010% | Weight % chg ([1]; desorption, Samp RH 25.12 %): 3.025% | Weight % chg ([1]; desorption, Samp RH 35.13 %): 3.870% | Weight % chg ([1]; desorption, Samp RH 44.99 %): 4.590% | Weight % chg ([1]; desorption, Samp RH 55.17 %): 5.352% | Weight % chg ([1]; desorption, Samp RH 65.08 %): 5.993% | Weight % chg ([1]; desorption, Samp RH 75.27 %): 6.741% | Weight % chg ([1]; desorption, Samp RH 85.24 %): 7.855% | Weight % chg ([1]; sorption, Samp RH 5.09 %): −0.187% | Weight % chg ([1]; sorption, Samp RH 14.73 %): 0.065% | Weight % chg ([1]; sorption, Samp RH 24.93 %): 0.303% | Weight % chg ([1]; sorption, Samp RH 34.87 %): 0.521% | Weight % chg ([1]; sorption, Samp RH 44.91 %): 0.780% | Weight % chg ([1]; sorption, Samp RH 54.80 %): 1.082% | Weight % chg ([1]; sorption, Samp RH 64.95 %): 1.458% | Weight % chg ([1]; sorption, Samp RH 74.71 %): 1.868% | Weight % chg ([1]; sorption, Samp RH 84.57 %): 2.502% | Weight % chg ([1]; sorption, Samp RH 94.86 %): 10.824% | % wt change upon equilibration at 5% RH [1, 4]: −0.187 % wt | % wt gain from 5%-85% RH [1, 4]: 2.689 % wt | % wt gain from 85%-95% RH [1, 4]: 8.322 % wt | % wt lost from 95%-5% RH [1, 4]: 10.151 % wt

CC[C@H](C)[C@H](NC(=O)OC)C(=O)N1CCC[C@H]1c1nc2ccc(-c3ccc4cc(-c5cnc([C@@H]6CCCN6C(=O)[C@@H](NC(=O)OC)[C@@H](C)OC)[nH]5)ccc4c3)cc2[nH]1 [Form I of Compound II]
plasma concentration ([2]; Cynomolgus monkeys, 0.083 hr, #0610703): BQL | concentration at 0.083 h ([2]; 0.083 hr, #0612169, read-out: plasma concentration): 8.33 ng/mL | concentration at 0.083 h ([2]; 0.083 hr, Mean, read-out: mean plasma concentration): 8.33 ng/mL | concentration at 0.25 h [2, 5]: 33.3 ng/mL | concentration at 0.25 h [2, 6]: 86.8 ng/mL | concentration at 0.25 h [2, 7]: 60.1 ng/mL | concentration at 0.5 hr [2, 5]: 207 ng/mL | concentration at 0.5 hr [2, 6]: 273 ng/mL | concentration at 0.5 hr [2, 7]: 240 ng/mL | concentration at 1 hr [2, 5]: 497 ng/mL | concentration at 1 hr [2, 6]: 1140 ng/mL | concentration at 1 hr [2, 7]: 819 ng/mL | concentration at 2 hr [2, 5]: 336 ng/mL | concentration at 2 hr [2, 6]: 954 ng/mL | concentration at 2 hr [2, 7]: 645 ng/mL | concentration at 4 hr [2, 5]: 213 ng/mL | concentration at 4 hr [2, 6]: 435 ng/mL | concentration at 4 hr [2, 7]: 324 ng/mL | concentration at 6 hr [2, 5]: 110 ng/mL | concentration at 6 hr [2, 6]: 194 ng/mL | concentration at 6 hr [2, 7]: 152 ng/mL | concentration at 8 hr [2, 5]: 55.9 ng/mL | concentration at 8 hr [2, 6]: 93.1 ng/mL | concentration at 8 hr [2, 7]: 74.5 ng/mL | concentration at 24 h [2, 5]: 8.79 ng/mL | concentration at 24 h [2, 6]: 7.37 ng/mL | concentration at 24 h [2, 7]: 8.08 ng/mL | Hygroscopicity (in words) ([3]; 0-75% RH): medium hygroscopic | Water absorption at high RH (in words) ([3]; ~85% RH and above): absorbed water very quickly | weight percentage change (water uptake) from 0-75% RH ([3]; listed as Compound II Form I): 4.34%
